This passage reports Kd results from PMC3749120, “RasGRPs Are Targets of the Anti-Cancer Agent Ingenol-3-Angelate” (PLoS ONE, 2013).

The target in assay [1] is T1, RasGRP3 (Homo sapiens, UniProt Q8IV61).
T1 construct: full-length
T1 sequence (Q8IV61 1-690): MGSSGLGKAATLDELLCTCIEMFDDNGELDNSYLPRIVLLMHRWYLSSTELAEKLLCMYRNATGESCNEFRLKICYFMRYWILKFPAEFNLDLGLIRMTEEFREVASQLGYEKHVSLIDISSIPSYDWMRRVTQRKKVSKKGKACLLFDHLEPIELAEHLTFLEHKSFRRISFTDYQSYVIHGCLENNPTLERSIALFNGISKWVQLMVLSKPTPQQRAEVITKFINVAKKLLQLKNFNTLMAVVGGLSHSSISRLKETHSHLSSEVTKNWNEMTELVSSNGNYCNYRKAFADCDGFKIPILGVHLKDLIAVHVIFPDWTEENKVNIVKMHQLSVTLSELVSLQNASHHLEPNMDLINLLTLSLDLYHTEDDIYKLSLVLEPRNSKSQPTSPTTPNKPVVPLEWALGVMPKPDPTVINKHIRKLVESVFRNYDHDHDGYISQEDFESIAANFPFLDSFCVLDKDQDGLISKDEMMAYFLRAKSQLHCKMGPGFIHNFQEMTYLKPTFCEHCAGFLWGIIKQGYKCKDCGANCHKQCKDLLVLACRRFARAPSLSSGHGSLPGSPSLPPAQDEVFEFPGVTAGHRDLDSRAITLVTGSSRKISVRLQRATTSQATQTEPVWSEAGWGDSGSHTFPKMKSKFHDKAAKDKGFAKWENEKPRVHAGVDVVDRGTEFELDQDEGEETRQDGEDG
Briefly: [3H]PDBu radioligand binding.

Assay [2] has as its target T1, RasGRP3. Briefly: competition radioligand binding with [3H]phorbol […],13-dibutyrate, […]°C.

In general, Kd refers to the concentration at which binding is half-saturated. A lower Kd goes with higher affinity.

Consider `CCCC(=O)O[C@@H]1[C@@H](C)[C@@]2(O)[C@@H](C=C(CO)C[C@]3(O)C(=O)C(C)=C[C@@H]23)[C@@H]2C(C)(C)[C@]12OC(=O)CCC` [PDBu, phorbol 12,13-dibutyrate], for which, on RasGRP3 [1], binding was characterised by a dissociation constant (Kd) of 0.42 ± 0.03 nM.

`C/C=C(/C)C(=O)O[C@H]1C(C)=C[C@]23C(=O)[C@@H](C=C(CO)[C@@H](O)[C@]12O)[C@H]1[C@@H](C[C@H]3C)C1(C)C` [I3A, Ingenol-3-angelate] returned a Kd at RasGRP3 [2] of 0.045 ± 0.005 nM.
